Where a SMILES comes first, the peptide text is derived from it. The star is where a group is joined. Octanoyl = CCCCCCCC(=O)*
How the values were obtained:
Assay type in all cases: cell-based
[1] = system: P. aeruginosa strain ATCC 27853; details: ATCC 27853
Source text: (§1) Table I, which follows, indicates the Minimal Inhibitory Concentration (MIC) in […] of various peptides against S.aureus strain ATCC 25923(S), P. aeruginosa strain ATCC 27853(P), E. coli ATCC strain 25922(E), and C. 4albicans (CA). […] The peptides are unsubstituted at the N-terminal; substituted with an acetyl group at the N-terminal, as indicated by Ac-; substituted with an octanoyl group at the N-terminal, as indicated by Oct-; substituted with spinogosine, as indicated by Sph-; substituted with a succinyl group, as indicated by Suc-; substituted with a hexanoyl group, as indicated by Hex-; substituted with a heptanoyl group, as indicated by Hep-; substituted with a valeryl group, as indicated by Val-; substituted with a myristryl group, as indicated by Myr-; or substituted with an ibuprofyl group, as indicated by Ibu-;
(§2) The procedure for the anti-bacterial assay is based upon the guidelines of the National Committee for Clinical Laboratory Standards, Document M7-T2, Volume 8, No. 8, 1988, which document is entirely incorporated herein by reference.
(§3) Stock solutions of peptides, with and without the appropriate substitutions, were prepared at a concentration of 512 μg/ml in sterile deionized distilled water and stored at −70° C.
(§4) The stock peptide solution was diluted in serial dilutions (1:2) down the wells of a microtiter plate so that the final concentrations of peptides in the wells were 0.25, 0.50, 1, 2, 4, 8, 16, 32, 64, 128 and 256 μg/ml. 1-5×10^5 CFUs/ml of either S. aureus ATCC 25923, E. coli ATCC 25922, P. aeruginosa ATCC 27853, or C. albicans, were added to the wells in full strength Mueller Hinton broth (BBL 11443) from a mid-log culture. The inoculum was standardized spectrophotometrically at 600 nm and was verified by colony counts. The plates were incubated for 16-20 hours at 37° C., and the minimal inhibitory concentration (MIC) for each peptide was determined. Minimal inhibitory concentration is defined as the lowest concentration of peptide which produces a clear well in the microtiter plate. The minimal inhibitory concentration of each of the peptides with and/or without the appropriate substitutions is given in Table I below.
(§5) The in vitro anti-microbial activities of the methane sulfonate derivatives were determined according to the methods described in Examples 1 and 2. The activities against ATCC strains of S. aureus, E. coli, P. aeruginosa, and C. albicans, and the hemolysis of red blood cells were compared to the parent compound (Table IV). The activities for Compound 843 (Oct-SEQ ID NO:143) methane sulfonate against clinical strains of P. aeruginosa isolated from cystic fibrosis patients were compared to the parent compound (Table V). The activity for Compound 469 (Oct-SEQ ID NO:27) methane sulfonate against P. gingivalis was compared to the parent compound (Table VI).

[2] = system: C. albicans
Source text: as §1, §2, §3, §4

[3] = system: E. coli ATCC strain 25922; assay: Minimal Inhibitory Concentration, microtiter broth dilution; details: ATCC strain 25922
Source text: as §1, §2, §3, §4, §5

| Structure (SMILES) | Minimal Inhibitory Concentration P [1] [µg/mL] | Minimal Inhibitory Concentration CA [2] [µg/mL] | Minimal Inhibitory Concentration E [3] [µg/mL] |
| --- | --- | --- | --- |
| CCCCCCCC(=O)N[C@@H](CCCCN)C(=O)N[C@@H](CCCCN)C(=O)N[C@@H](CC(C)C)C(=O)N[C@@H](CC(C)C)C(=O)N[C@@H](CCCCN)C(=O)N[C@@H](CCCCN)C(=O)N[C@@H](CC(C)C)C(=O)N[C@@H](CCCCN)C(=O)N[C@@H](CCCCN)C(=O)N[C@@H](CC(C)C)C(N)=O [Oct-(SEQ ID NO: 109)-NH2] (Octanoyl-KKLLKKLKKL-NH2) | 4 | 32 | 16 |
| CCCCCCCC(=O)N[C@@H](CC(C)C)C(=O)N[C@@H](CCCCN)C(=O)N[C@@H](CCCCN)C(=O)N[C@@H](CC(C)C)C(=O)N[C@@H](CC(C)C)C(=O)N[C@@H](CCCCN)C(=O)N[C@@H](CCCCN)C(=O)N[C@@H](CC(C)C)C(=O)N[C@@H](CCCCN)C(=O)N[C@@H](CCCCN)C(=O)N[C@@H](CC(C)C)C(N)=O [Oct-(SEQ ID NO: 110)-NH2] (Octanoyl-LKKLLKKLKKL-NH2) | 4 | 32 | 8 |
| CCCCCCCC(=O)N[C@@H](C)C(=O)N[C@@H](CCCCN)C(=O)N[C@@H](CCCCN)C(=O)N[C@@H](CC(C)C)C(=O)N[C@@H](CC(C)C)C(=O)N[C@@H](CCCCN)C(=O)N[C@@H](CCCCN)C(=O)N[C@@H](CC(C)C)C(=O)N[C@@H](CCCCN)C(=O)N[C@@H](CCCCN)C(=O)N[C@@H](CC(C)C)C(N)=O [Oct-(SEQ ID NO: 111)-NH2] (Octanoyl-AKKLLKKLKKL-NH2) | 8 | 32 | 32 |
| CCCCCCCC(=O)N[C@@H](CC(C)C)C(=O)N[C@@H](CC(C)C)C(=O)N[C@@H](CCCCN)C(=O)N[C@@H](CCCCN)C(=O)N[C@@H](CC(C)C)C(=O)N[C@@H](CCCCN)C(=O)N[C@@H](CCCCN)C(=O)N[C@@H](CC(C)C)C(=O)N[C@@H](CC(C)C)C(=O)N[C@@H](CCCCN)C(=O)N[C@@H](CCCCN)C(=O)N[C@@H](CC(C)C)C(N)=O [Oct-(SEQ ID NO: 113)-NH2] (Octanoyl-LLKKLKKLLKKL-NH2) | 8 | 128 | 8 |
| CCCCCCCC(=O)N[C@@H](CCCCN)C(=O)N[C@@H](Cc1ccccc1)C(=O)N[C@@H](C)C(=O)N[C@@H](CCCCN)C(=O)N[C@@H](CCCCN)C(=O)N[C@@H](Cc1ccccc1)C(=O)N[C@@H](C)C(N)=O [Oct-(SEQ ID NO: 118)-NH2] (Octanoyl-KFAKKFA-NH2) | >256 | >256 | >256 |
| CCCCCCCC(=O)N[C@@H](CCCCN)C(=O)N[C@H](C(=O)N[C@@H](C)C(=O)N[C@@H](CCCCN)C(=O)N[C@@H](CCCCN)C(=O)N[C@H](C(=O)N[C@@H](C)C(N)=O)[C@@H](C)CC)[C@@H](C)CC [Oct-(SEQ ID NO: 119)-NH2] (Octanoyl-KIAKKIA-NH2) | >256 | >256 | >256 |
| CCCCCCCC(=O)N[C@@H](CCCNC(=N)N)C(=O)N[C@@H](Cc1ccccc1)C(=O)N[C@@H](C)C(=O)N[C@@H](CCCNC(=N)N)C(=O)N[C@@H](CCCNC(=N)N)C(=O)N[C@@H](Cc1ccccc1)C(=O)N[C@@H](C)C(N)=O [Oct-(SEQ ID NO: 120)-NH2] (Octanoyl-RFARRFA-NH2) | 128 | 64 | 256 |
| CCCCCCCC(=O)N[C@@H](CCCCN)C(=O)N[C@@H](Cc1ccccc1)C(=O)N[C@@H](C)C(=O)N[C@@H](CCCCN)C(=O)N[C@@H](Cc1ccccc1)C(=O)N[C@@H](C)C(=O)N[C@@H](CCCCN)C(=O)N[C@@H](CCCCN)C(=O)N[C@@H](Cc1ccccc1)C(=O)N[C@@H](C)C(N)=O [Oct-(SEQ ID NO: 121)-NH2] (Octanoyl-KFAKFAKKFA-NH2) | 256 | 256 | 256 |
| CCCCCCCC(=O)N[C@@H](CCCCN)C(=O)N[C@@H](CCCCN)C(=O)N[C@@H](Cc1ccccc1)C(=O)N[C@@H](C)C(=O)N[C@@H](CCCCN)C(=O)N[C@@H](Cc1ccccc1)C(=O)N[C@@H](C)C(=O)N[C@@H](CCCCN)C(=O)N[C@@H](CCCCN)C(=O)N[C@@H](Cc1ccccc1)C(=O)N[C@@H](C)C(N)=O [Oct-(SEQ ID NO: 122)-NH2] (Octanoyl-KKFAKFAKKFA-NH2) | 32 | 64 | 64 |
| CCCCCCCC(=O)N[C@@H](CCCCN)C(=O)N[C@@H](Cc1ccccc1)C(=O)N[C@@H](C)C(=O)N[C@@H](CCCCN)C(=O)N[C@@H](CCCCN)C(=O)N[C@@H](Cc1ccccc1)C(=O)N[C@@H](C)C(=O)N[C@@H](CCCCN)C(=O)N[C@@H](Cc1ccccc1)C(=O)N[C@@H](C)C(=O)N[C@@H](CCCCN)C(=O)N[C@@H](CCCCN)C(=O)N[C@@H](Cc1ccccc1)C(=O)N[C@@H](C)C(N)=O [Oct-(SEQ ID NO: 125)-NH2] (Octanoyl-KFAKKFAKFAKKFA-NH2) | 8 | 64 | 16 |
| CCCCCCCC(=O)N[C@@H](CCCNC(=N)N)C(=O)N[C@@H](Cc1ccccc1)C(=O)N[C@@H](C)C(=O)N[C@@H](CCCNC(=N)N)C(=O)N[C@@H](CCCNC(=N)N)C(=O)N[C@@H](Cc1ccccc1)C(=O)N[C@@H](C)C(=O)N[C@@H](CCCNC(=N)N)C(=O)N[C@@H](Cc1ccccc1)C(=O)N[C@@H](C)C(=O)N[C@@H](CCCNC(=N)N)C(=O)N[C@@H](CCCNC(=N)N)C(=O)N[C@@H](Cc1ccccc1)C(=O)N[C@@H](C)C(N)=O [Oct-(SEQ ID NO: 126)-NH2] (Octanoyl-RFARRFARFARRFA-NH2) | 8 | 64 | 8 |
| CCCCCCCC(=O)N[C@@H](CCC(=O)O)C(=O)N[C@@H](CCCCN)C(=O)N[C@@H](CCCCN)C(=O)N[C@@H](CC(C)C)C(=O)N[C@@H](CC(C)C)C(=O)N[C@@H](CCCCN)C(=O)N[C@@H](CCCCN)C(=O)N[C@@H](CC(C)C)C(=O)N[C@@H](CCCCN)C(=O)N[C@@H](CCCCN)C(=O)N[C@@H](CC(C)C)C(N)=O [Oct-(SEQ ID NO: 127)-NH2] (Octanoyl-EKKLLKKLKKL-NH2) | 32 | 128 | 32 |
| CCCCCCCC(=O)N[C@@H](CCCCN)C(=O)N[C@@H](CCCCN)C(=O)N[C@@H](CCCCN)C(=O)N[C@@H](CC(C)C)C(=O)N[C@@H](CC(C)C)C(=O)N[C@@H](CCCCN)C(=O)N[C@@H](CCCCN)C(=O)N[C@@H](CC(C)C)C(=O)N[C@@H](CCCCN)C(=O)N[C@@H](CCCCN)C(=O)N[C@@H](CC(C)C)C(N)=O [Oct-(SEQ ID NO: 128)-NH2] (Octanoyl-KKKLLKKLKKL-NH2) | 64 | 32 | 32 |
